The text below walks through data of ChEMBL document CHEMBL5325396, “Discovery of Novel Acridane-Based Tubulin Polymerization Inhibitors with Anticancer and Potential Immunomodulatory Effects” (J Med Chem, 2023).

The test system of data set [1] is B16-F10. The experiment in a line: Inhibition of cell migration in mouse B16-F10 cells assessed as wound area recovery upto 50 nM incubated for 24 hrs by wound healing assay relative to control. In kind it is functional. On the set-up: scale not given: the % may be the effect or the level left. The settings on record: up to 50 nM.
In data set [2] the test system is B16-F10. The experiment in a line: Inhibition of cell migration in mouse B16-F10 cells assessed as wound area ratio at 10 nM incubated for 24 hrs by wound healing assay relative to control. The data set is classed as functional.
The subject of data set [3] is B16-F10. The experiment in a line: Inhibition of cell migration in mouse B16-F10 cells assessed as wound area ratio at 25 nM incubated for 24 hrs by wound healing assay relative to control. In kind it is functional.
The target of the next data set is Tubulin (Sus scrofa, UniProt P02554+P02550). The experiment in a line: Inhibition of tubulin polymerization of pig brain microtubules by spectroscopic analysis. In kind it is tissue-based.
Data set [4] concerns B16-F10. Kind of data set: Inhibition of tubulin polymerization in mouse B16-F10 cells assessed as disruption of microtubule network incubated for 6 hrs by fluorescence microscopy. In kind it is cell-based. The settings on record: dose 10-50 nM.
For data set [5], the system named is B16-F10. The experiment in a line: Induction of cell cycle arrest in mouse B16-F10 cells assessed as accumulation at S phase at 25 nM incubated for 24 hrs by PI staining based flow cytometry (reference value: 21.79 %). The data set is classed as functional. (In general: A flow cytometer gives signals particle by particle.)
The test system of data set [6] is B16-F10. Kind of data set: Induction of cell cycle arrest in mouse B16-F10 cells assessed as accumulation at G2 phase at 50 nM incubated for 24 hrs by PI staining based flow cytometry (reference value: 23.04 %). The data set is classed as functional.
The subject of data set [7] is B16-F10. The experiment in a line: Induction of apoptosis in mouse B16-F10 cells assessed as early apoptotic cells at 10 nM incubated for 48 hrs by annexinV-FITC/PI staining based flow cytometry (reference value: 4.25 %). In kind it is functional.
Data set [8] concerns B16-F10. The experiment in a line: Induction of apoptosis in mouse B16-F10 cells assessed as necrotic cells at 10 nM incubated for 48 hrs by annexinV-FITC/PI staining based flow cytometry (reference value: 0.064 %). In kind it is functional.
Data set [9] has as its system B16-F10. The experiment in a line: Antitumor activity against mouse B16-F10 cells allografted in C57 mouse assessed as tumor growth inhibition at 10 mg/kg, ip administered consecutively for 14 days. In kind it is functional. The conditions noted are these: B16-F10, 336 h, time 14 day, read-out: TGI.
Data set [10] in a line: Toxicity in C57 mouse allografted with mouse B16-F10 cells assessed as pathological damage in kidney at 10 mg/kg, ip administered consecutively for 14 days by H and E staining based analysis. The conditions noted are these: in vivo, 336 h, time 14 day. The data set is classed as organism-based.
For data set [11], the system named is B16-F10. The experiment in a line: Immunomodulatory activity in mouse B16-F10 cells allografted in C57 mouse assessed as increase in CD3-positive CD8-positive cells at 10 mg/kg, ip administered consecutively for 14 days (reference value: 6.66 %). In kind it is functional. The conditions noted are these: time 14 day.

Consider `COc1ccc2c(c1F)Cc1ccccc1N2C(=O)c1cc(OC)c(OC)c(OC)c1`, for which the Activity is on record as 59.63% with B16-F10 [1]; 38.12% with B16-F10 [5]; 71.11% with B16-F10 [6]; 5.7% with B16-F10 [7]; 0.133% with B16-F10 [8]; “Non-Toxic” in data set [10]. Further, in the data set on B16-F10 [11], the Activity is listed as 8.17%. Further, the Ratio with B16-F10 [2] is listed as 31.52%; in the data set on B16-F10 [3], 26.05%. The IC50 on Tubulin is 1.5 µM. In addition, the inhibition entry in the data set with B16-F10 [4] was “Dose-Dependent Effect”. Moreover, in the data set with B16-F10 [9], the inhibition in vivo at 10 mg/kg came out at 65.1%.

The IC50 is the concentration at which inhibition is half-maximal.
